Bounds are passed on as bounds.

The nature of data set [1]: Radio-HPLC metabolite analysis of mouse brain homogenate and plasma after IV radiotracer. It counts as in vivo, male C57 black 6 mice. Here is the method:
In this preclinical study, two radiolabeling positions were investigated, [^11C-N-CH3]UCB2713 and [^11C]carbonyl UCB2713 ([^11C-CO]UCB2713). The radiolabeling of [^11C-N-CH3]UCB2713 was performed by N-methylation of the corresponding desmethyl precursor with [^11C]methyl iodide and radiolabeling of [^11C-CO]UCB2713 was performed by [^11C]aminocarbonylation of the iodo precursor and the amino precursor with [^11C]carbon monoxide in the presence of Pd(π-cinnamyl) chloride dimer and Xantphos (4,5-bis(diphenylphosphino)-9,9-dimethylxanthene) (Fig. 1b). For additional information on the precursor molecules and radiolabeling methods, see the electronic supplement. A high-performance liquid chromatography (HPLC) metabolite analysis method was developed to quantify the ratio of [^11C-N-CH3]UCB2713 and other unidentified metabolites in plasma and brain homogenate samples. Relative quantification was used to provide the ratio of parent to metabolite in these samples.
Preclinical experiments were conducted on male C57 black 6 mice (N = 10). In vivo experiments were performed on 3 mice and included a PET scan of the brain; ex vivo experiments were performed on all 10 mice and included samples of brain homogenate.
[11C]UCB2713 in vivo/ex vivo Evaluation
Administration of Radioligand and Collecting Samples
Each mouse received an intravenous (IV) bolus injection of [11C]UCB2713 via the jugular vein. The mean (standard deviation [SD]) mass of each radiotracer dose was 1.54 (± 1.03) µg; with a radioactive dose of 17.26 (± 10.88) MBq. At pre-defined time points (40, 60, and 90 min) post-administration of [11C]UCB2713, each mouse was euthanized by exsanguination, followed by cervical dislocation, with blood samples collected in heparin tubes and the brain dissected.
Brain Sample Processing and Preparation of Sample for Analysis
A sample of brain homogenate (1:1, brain:water) was assessed for radioactivity using a γ-counter. Brain homogenate was extracted with a ratio of 1:2 (homogenate:acetonitrile); a ratio of 1:1 was used for the first two animals. The mixture was vortexed for 3 min followed by centrifugation (12000 x g) for 5 min at room temperature. The extraction efficiency was […]
Brain extraction efficiency = counts per minute (CPM) in supernatant (brain extract)/CPM in brain homogenate extracted
To identify the parent-retention time based on the ultraviolet (UV) chromatogram, 20 µL of a solution containing UCB2713 was added to the supernatant (350 µL), followed by 350 µL of 50 mM ammonium formate (adjusted to pH 8), then 0.5 mL of the resulting solution was injected onto the high-performance liquid chromatography (HPLC) column.
Two aliquots of this solution were counted to determine the HPLC recovery as follows:
Recovery efficiency % = = i=1 ∙100 […]
Where “CPM(aliq.)” is the radioactivity measured for the HPLC brain homogenate samples aliquot, “Valiq.” Is the volume of each aliquot , “CPM fi” is the count per minute for fraction “i” and ∑ 30 is the sum of 30 fractions.
Mouse blood samples were centrifuged at 7500 x g for 3 min at 4 °C and plasma was extracted with a ratio of 1:1 (plasma:acetonitrile). The plasma extraction efficiency was […]
Plasma extraction efficiency = CPM in supernatant (plasma extract)/CPM in plasma […]
Samples were prepared as described above for the brain, and two aliquots of solution were counted to determine the HPLC column recovery.
HPLC Procedure and Data Analysis
The HPLC system used a pump, degasser, UV-Vis/Diode Array Detector, and fraction collector. HPLC conditions used were 55% acetonitrile and 45% 100 mM ammonium formate (Method 1), or 48% acetonitrile and 52% 100 mM ammonium formate (adjusted to pH 8; Method 2) as the mobile phase at 5 mL/min and an Agilent XDB-C18 semi-preparative […]
column (5 micron, 250 x 9.4 mm; Method 2); 30 sample fractions (Method 1) and 36 sample fractions (Method 2) were collected over either a 10- or 12-min run.
A radio-chromatogram was reconstructed from the HPLC fractions collected and the […]

A short description of data set [2]: Phase 1 PET-CT brain biodistribution study TM0017 (VT, K1, k2). In kind it is in vivo, human. The protocol: A sample size of 2–10 participants was considered sufficient to meet the objectives, whilst limiting radiation exposure.
The preparation of radiopharmaceuticals and execution of PET-CT scans was performed by radiochemists, physicians, and technologists of Invicro (London, UK). Following local anesthesia, a catheter was inserted into the radial artery by an experienced physician; two venous catheters were also inserted. […] Upon administration, dynamic scanning started immediately and continued for 90 min.
(§1) Arterial input function data were acquired and processed for all PET scans.
Anatomical regions of interest (ROI) were defined via nonlinear deformation of a template MR image and associated neuroanatomical atlas, to match individual participants’ MR images. These ROI included, but were not limited to: parietal lobe, occipital lobe, frontal lobe, temporal lobe, striatum, cerebellum, thalamus, and the brain stem. Participants’ PET images were registered to their MR images, enabling the individualized ROI to be applied to the dynamic emission data to generate regional time activity curves (TACs). For additional information on the generation of regional TACs, see the electronic supplement.
Phase 1 PET Study in Healthy Male Participants (TM0017)
The TAC and total plasma data were fitted to a single compartment model to determine the influx and efflux constants K1 and k2. Because the plasma free fraction estimate is imprecise, we elected to fit the model using the total (free and bound) arterial concentration input function. The parameters of this model are related to the analogous parameters which would be estimated using an accurate estimate of the free arterial concentration using the equations below. We were able therefore to determine and present the K1 and estimated whole brain total distribution volume (VT), with relatively good repeatability between patients, and the equations below could also be used to relate the overall mean estimates back to the ideal total brain to free plasma minzasolmin (V’T) and unidirectional extraction Eu which can be calculated using the free fraction. The blood volume in the model was fixed at 5%. In this model, radiotracer which is free in tissue, non-specifically bound and specifically bound (i.e. to a target of interest) are lumped together in a single compartment, and so interchange between those states is assumed to be rapid.
The arterial input function used represents the total concentration of parent radiotracer in plasma, with no correction for plasma protein binding and the fitted and observed K1 from this model is lower than the rate of uptake from the free plasma concentration (K’1):
To calculate the Eu from the observed K1 from the model we then need to combine […]
The partition coefficient between total brain and total plasma concentration was determined from the fitted K1 and k2 parameters: […]
and the ratio of total concentration in brain to free concentration in plasma ( V’T) could be […]
Supplemental Fig. 1. Example of HPLC chromatograms (radioactive trace, top; UV trace, bottom) obtained during HPLC analysis of [11C-N-CH3]UCB2713 dose. The time delay

Data set [3] is described as follows: Arterial plasma radio-metabolite analysis during PET scans (TM0017). It counts as in vivo, human.
From the text: as §1

Data set [4] in a line: Safety and tolerability in TM0017 (TEAEs, ECG, vital signs). The following applies: TM0017, N = 4, IV radiotracer (≤ 10 µg).
Method: Other safety variables recorded include changes in 12-lead electrocardiogram (ECG) assessment and changes in vital signs (heart rate, systolic blood pressure, diastolic blood pressure, respiratory rate, and body temperature). Vital signs were measured in supine position following 5 min of rest and clinically significant abnormalities (according to the investigator) were recorded as an AE. All ECG recordings were performed following 5 min of rest in the supine position, in triplicate, with ≥ 1 min between each recording. If any clinically significant abnormalities occurred, an ECG data specialist was to review the recordings.
[5] abbreviates: Cerebellum, Scan 2 (after oral minzasolmin 360 mg).
[6] abbreviates: Cerebral white matter, Scan 1 (baseline).
Where [7] appears, read: Cerebral white matter, Scan 2 (after oral minzasolmin 360 mg).
The mark [8] stands for this setting: Frontal lobe, Scan 1 (baseline).
Where [9] appears, read: Frontal lobe, Scan 2 (after oral minzasolmin 360 mg).
The mark [10] stands for this setting: Gray matter, Scan 2 (after oral minzasolmin 360 mg).
Where [11] appears, read: Occipital lobe, Scan 1 (baseline).
Setting [12] is: Occipital lobe, Scan 2 (after oral minzasolmin 360 mg).
Where [13] appears, read: Parietal lobe, Scan 1 (baseline).
Where [14] appears, read: Parietal lobe, Scan 2 (after oral minzasolmin 360 mg).
The mark [15] stands for this setting: Striatum, Scan 2 (after oral minzasolmin 360 mg).
Where [16] appears, read: Temporal lobe, Scan 1 (baseline).
Setting [17] is: Temporal lobe, Scan 2 (after oral minzasolmin 360 mg).
The mark [18] stands for this setting: mixed effects model, after oral minzasolmin 360 mg.

Regarding `CCCC[C@@H](Cc1c[nH]c2ccccc12)N[11C](=O)c1cnc(N2CCNCC2)s1` [desmethyl-[^11C-CO]UCB2713], the “amount of desmethyl metabolite observed in mouse brain” value in data set [1] (radio-HPLC of brain homogenate after [11C-CO]UCB2713) is ~ 2%.
Turning to `CCCC[C@@H](Cc1c[nH]c2ccccc12)N[11C](=O)c1cnc(N2CCN(C)CC2)s1` [[^11C-CO]UCB2713], the “parent fraction in brain tissue” value in data set [1] (in-vivo metabolism studies in mice) is listed as over 95%. Besides, the “polar metabolites in mouse brain” value in data set [1] (radio-HPLC column eluent front ~1.5-2 min) is recorded as “no polar metabolite present in the mouse brain”.
`CCCC[C@H](Cc1c[nH]c2ccccc12)NC(=O)c1cnc(N2CCN([11CH3])CC2)s1` [[^11C]minzasolmin]: the K1 is 0.02 mL/cm^3/min in data set [2] (Cerebellum, Scan 1 (baseline)); 0.018 mL/cm^3/min in data set [2] (setting [5]); 0.008 mL/cm^3/min in data set [2] (setting [6]); 0.007 mL/cm^3/min in data set [2] (setting [7]); 0.017 mL/cm^3/min in data set [2] (setting [8]); 0.014 mL/cm^3/min in data set [2] (setting [9]). Further, the K1 in data set [2] (Gray matter, Scan 1 (baseline)) stood at 0.017 mL/cm^3/min; in data set [2] (setting [10]), 0.015 mL/cm^3/min; in data set [2] (setting [11]), 0.019 mL/cm^3/min; in data set [2] (setting [12]) it was 0.017 mL/cm^3/min; in data set [2] (setting [13]) it was 0.017 mL/cm^3/min; in data set [2] (setting [14]), 0.015 mL/cm^3/min. In addition, the K1 was found to be 0.015 mL/cm^3/min in data set [2] (Striatum, Scan 1 (baseline)); 0.013 mL/cm^3/min in data set [2] (setting [15]); 0.017 mL/cm^3/min in data set [2] (setting [16]); 0.015 mL/cm^3/min in data set [2] (setting [17]). Besides, the VT was determined as 0.522 mL/cm^3 in data set [2] (Cerebellum, Scan 1 (baseline)); 0.499 mL/cm^3 in data set [2] (setting [5]); 0.469 mL/cm^3 in data set [2] (setting [6]); 0.523 mL/cm^3 in data set [2] (setting [7]); 0.539 mL/cm^3 in data set [2] (setting [8]); 0.539 mL/cm^3 in data set [2] (setting [9]). Further, the VT in data set [2] (Gray matter, Scan 1 (baseline)) is 0.547 mL/cm^3; in data set [2] (setting [10]) it was 0.542 mL/cm^3; in data set [2] (setting [11]) it was 0.548 mL/cm^3; in data set [2] (setting [12]) it was 0.555 mL/cm^3; in data set [2] (setting [13]) it was 0.551 mL/cm^3; in data set [2] (setting [14]) it was 0.574 mL/cm^3. The VT is recorded as 0.545 mL/cm^3 in data set [2] (Striatum, Scan 1 (baseline)); 0.528 mL/cm^3 in data set [2] (setting [15]); 0.566 mL/cm^3 in data set [2] (setting [16]); 0.557 mL/cm^3 in data set [2] (setting [17]). The “VT before and after dosing with minzasolmin 360 mg” value in data set [2] (Scan 1 vs Scan 2) was “no difference in VT”. Further, the “overall mean brain influx rate (K1)” value in data set [2] (across each participant and all ROI, from total plasma concentrations) was 0.015 mL/cm^3/min. Also, the “qualitative assessment of the PET images” value in data set [2] (following radiotracer injections) is listed as “distributed throughout the brain”. For the same molecule, in data set [2] (least squares mean of mixed model over all regions and participants), the “mean difference in VT between Scan 1 and Scan 2” value is recorded as -0.008 mL/cm^3. Moreover, the “change in K1 after oral dosing” value in data set [2] (setting [18]) was -15.9%. In data set [2] (setting [18]), the “change in k2 after oral dosing” value is on record as -9.3%. Besides, the “radioactivity in plasma attributable to intact parent radiotracer” value in data set [3] (human arterial plasma, at 90 min) was ~ 50%. In addition, the “total parent fraction during the radiotracer brain uptake phase” value in data set [3] (human plasma, up to 30 min) was over 70%. Further, the “Any TEAEs” value in data set [4] was 3 (75) n (%). For the same molecule, the Deaths in data set [4] is reported as 0 n (%). In data set [4], the “Discontinuations due to TEAEs” value is 0 n (%). Further, in data set [4], the “Drug-related TEAEs” value is 0 n (%). Besides, the “Serious TEAEs” value in data set [4] is listed as 0 n (%). The “Severe TEAEs” value in data set [4] was 0 n (%). Further, in data set [4], the “TEAEs of special interest” value is on record as 0 n (%).

For the origin of these results see PMC10973027 (Molecular Imaging and Biology, 2023).
